Results from patent US20050176115A1, “Process for the production of methionine” (Nippon Soda Co., Ltd., priority 2002, published 2005).
Like-named read-outs stand apart in the source and are kept apart here.

Legend:
[1] = ammonia present at an excessive amount in mole ratio to methionine; 5-50° C.; FIG. 1
Description: About 20 wt % of methionine also can be dissolved in water by addition of inorganic alkali such as NaOH and KOH, while in this case it is required to neutralize with the use of acid to obtain a product in the form of salt-free solid of methionine, leading to a problem that an additional operation to remove a lot of inorganic salt waste generated from the neutralization is required.

[2] = by addition of inorganic alkali such as NaOH and KOH
[3] = cited from earlier work

- solubility of methionine [1]: increases
- amount of methionine that can be dissolved in water [2]: About 20 wt %
SMILES: CSCC[C@H](N)C(=O)O (racemic) [methionine]
- water solubility ([3]; at 25° C.): 3.38 g/100 g·H2O
- water solubility ([3]; at 50° C.): 6.07 g/100 g·H2O
